From patent publication US20240325353A1, “COMPOUND FOR TREATMENT OF COGNITIVE DISORDERS” (Syndesi Therapeutics SA, priority 2021, published 2024)

Tested on: brain activity (BOLD signal)
Assay: pharmaco-MRI (BOLD) neuroimaging study in conscious rats
Format: in vivo, rat
Conditions: for median number of positive voxels (positive BOLD volume of activation): 20-30 min post injection
Protocol: Test Substance, Reference Substance(s), and Vehicle: the compound of example 1 test substance for dose-dependent change in BOLD signal was provided by Syndesi along with the formula for the vehicle.
Subjects: Forty-eight male Sprague Dawley rats weighing ca 275-300 g were obtained from Charles River Laboratories (Wilmington, MA, USA). Rat were maintained on a 12:12 hour light:dark cycle with a lights on at 0700 hours and allowed access to food and water ad libitum. All rats were acquired and cared for in accordance with the guidelines published in the Guide for the Care and Use of Laboratory Animals (National Institutes of Health Publications No. 85-23, Revised 1985) and adhered to the National Institutes of Health and the American Association for Laboratory Animal Science guidelines.
Acclimation: To reduce the stress associated with head restraint, rats were acclimated to the restraining system (head holder and body tube) one week prior to their actual imaging session. The design of the restraining system (Animal Imaging Research, Holden MA, USA) included a padded head support obviating the need for ear bars helping to reduce animal discomfort while minimizing motion artifact. These acclimation sessions were run each day for 4-5 consecutive days. Rats were briefly anesthetized with 2-3% isoflurane while being secured into the head holder. The forepaws were secured with tape. When fully conscious, the imaging system is placed into a black opaque box “mock scanner” for 30 min with a tape-recording of the MRI pulse sequence to simulate the bore of the magnet and the imaging protocol. A significant decline in respiration, heart rate, motor movements, and plasma corticosterone has been measured when the first and last acclimation periods are compared (King et al., 2005). The reduction in autonomic and somatic measures of arousal and stress improve the signal resolution and quality of the images.
Image Acquisition: Animals were scanned at 300 MHz using a quadrature transmit/receive volume coil built into the rat head holder and restraining system for awake animal imaging (Animal Imaging Research, Holden, MA, USA). The design of the coil provided complete coverage of the brain from olfactory bulbs to brain stem with excellent B1 field homogeneity. Experiments were conducted using a Bruker Biospec 7.0 T/20-cm USR horizontal magnet (Bruker, Billerica, MA, USA) and a 20-G/cm magnetic field gradient insert (ID=12 cm) capable of a 120-μs rise time. At the beginning of each imaging session, a high-resolution anatomical data set was collected using the RARE pulse sequence [22 slice; 1.0 mm; field of view (FOV) 3.0 cm; matrix size 256×256; repetition time (TR) 2.5 s; echo time (TE) 12 ms; NEX 2; 3 min acquisition time]. Functional images were acquired using a multi-slice half-Fourier acquisition single-shot turbo spin echo (HASTE) pulse sequence. Bruker Paravision automatically finds the basic frequency, shims, power requirements for 90° and 180° pulses and sets the receiver gain. A single scanning session acquired 22 slices, 1.0 mm thick, every 6.0 s (TR), using an effective TE of 48 ms, FOV 3.0 cm, matrix size 96×96, NEX 1, and repeated 450 times for a total scanning time of 45 min. The in-plane pixel resolution was 312 μm2.
Data Processing: Data are coregistered to a mean functional image using SPM8's coregistrational code with the following parameters: Quality: 0.97, Smoothing: 0.35 mm, Separation: 0.5 mm. Gaussian smoothing was performed with a FWHM of 0.8 mm. Images were aligned and registered to the 3D rat brain atlas, segmented and labeled with 171 discrete anatomical regions. The alignment process was facilitated by an interactive graphic user interface. The registration process involved translation, rotation and scaling independently and in all three dimensions. Matrices that transformed each subject's anatomy were used to embed each slice within the atlas. […]

O=C1C[C@H](c2cc(F)c(F)c(F)c2)CN1Cn1ncnc1Cl [compound of example 1, (4R)-1-[(5-chloro-1H-1,2,4-triazol-1-yl)methyl]-4-(3,4,5-trifluorophenyl)pyrrolidin-2-one]
median number of positive voxels (positive BOLD volume of activation) (lateral posterior thalamic nucleus, 0.1 mg/kg i.p.): 11 | median number of positive voxels (positive BOLD volume of activation) (lateral posterior thalamic nucleus, 0.3 mg/kg i.p.): 3 | median number of positive voxels (positive BOLD volume of activation) (lateral posterior thalamic nucleus, 1.0 mg/kg i.p.): 0 | median number of positive voxels (positive BOLD volume of activation) (lateral preoptic area, 0.1 mg/kg i.p.): 12 | median number of positive voxels (positive BOLD volume of activation) (lateral preoptic area, 0.3 mg/kg i.p.): 3 | median number of positive voxels (positive BOLD volume of activation) (lateral preoptic area, 1.0 mg/kg i.p.): 0 | median number of positive voxels (positive BOLD volume of activation) (lateral septal nucleus, 0.1 mg/kg i.p.): 34 | median number of positive voxels (positive BOLD volume of activation) (lateral septal nucleus, 0.3 mg/kg i.p.): 35 | median number of positive voxels (positive BOLD volume of activation) (lateral septal nucleus, 1.0 mg/kg i.p.): 4 | median number of positive voxels (positive BOLD volume of activation) (paraventricular nucleus (first entry, P 0.003), 0.1 mg/kg i.p.): 4 | median number of positive voxels (positive BOLD volume of activation) (paraventricular nucleus (first entry, P 0.003), 0.3 mg/kg i.p.): 5 | median number of positive voxels (positive BOLD volume of activation) (paraventricular nucleus (first entry, P 0.003), 1.0 mg/kg i.p.): 0 | median number of positive voxels (positive BOLD volume of activation) (prelimbic ctx, 0.1 mg/kg i.p.): 50 | median number of positive voxels (positive BOLD volume of activation) (prelimbic ctx, 0.3 mg/kg i.p.): 32 | median number of positive voxels (positive BOLD volume of activation) (prelimbic ctx, 1.0 mg/kg i.p.): 4 | median number of positive voxels (positive BOLD volume of activation) (reticular nucleus midbrain, 0.1 mg/kg i.p.): 19 | median number of positive voxels (positive BOLD volume of activation) (reticular nucleus midbrain, 0.3 mg/kg i.p.): 18 | median number of positive voxels (positive BOLD volume of activation) (reticular nucleus midbrain, 1.0 mg/kg i.p.): 1 | median number of positive voxels (positive BOLD volume of activation) (retrosplenial caudal ctx, 0.1 mg/kg i.p.): 43 | median number of positive voxels (positive BOLD volume of activation) (retrosplenial caudal ctx, 0.3 mg/kg i.p.): 27 | median number of positive voxels (positive BOLD volume of activation) (retrosplenial caudal ctx, 1.0 mg/kg i.p.): 0 | median number of positive voxels (positive BOLD volume of activation) (subiculum dorsal, 0.1 mg/kg i.p.): 13 | median number of positive voxels (positive BOLD volume of activation) (subiculum dorsal, 0.3 mg/kg i.p.): 12 | median number of positive voxels (positive BOLD volume of activation) (subiculum dorsal, 1.0 mg/kg i.p.): 0 | median number of positive voxels (positive BOLD volume of activation) (substantia nigra reticularis, 0.1 mg/kg i.p.): 19 | median number of positive voxels (positive BOLD volume of activation) (substantia nigra reticularis, 0.3 mg/kg i.p.): 22 | median number of positive voxels (positive BOLD volume of activation) (substantia nigra reticularis, 1.0 mg/kg i.p.): 2 | median number of positive voxels (positive BOLD volume of activation) (triangular septal nucleus, 0.1 mg/kg i.p.): 4 | median number of positive voxels (positive BOLD volume of activation) (triangular septal nucleus, 0.3 mg/kg i.p.): 1 | median number of positive voxels (positive BOLD volume of activation) (triangular septal nucleus, 1.0 mg/kg i.p.): 0 | brain areas significantly affected by the four treatments (vehicle, 0.1, 0.3, 1.0 mg/kg, of 171 brain regions): 71/171 | median number of positive voxels (positive BOLD volume of activation) (ventral lateral striatum, 0.1 mg/kg i.p.): 82 | median number of positive voxels (positive BOLD volume of activation) (ventral lateral striatum, 0.3 mg/kg i.p.): 1 | median number of positive voxels (positive BOLD volume of activation) (ventral lateral striatum, 1.0 mg/kg i.p.): 0 | median number of positive voxels (positive BOLD volume of activation) (ventral medial striatum, 0.1 mg/kg i.p.): 47 | median number of positive voxels (positive BOLD volume of activation) (ventral medial striatum, 0.3 mg/kg i.p.): 18 | median number of positive voxels (positive BOLD volume of activation) (ventral medial striatum, 1.0 mg/kg i.p.): 0 | median number of positive voxels (positive BOLD volume of activation) (ventral orbital ctx, 0.1 mg/kg i.p.): 19 | median number of positive voxels (positive BOLD volume of activation) (ventral orbital ctx, 0.3 mg/kg i.p.): 4 | median number of positive voxels (positive BOLD volume of activation) (ventral orbital ctx, 1.0 mg/kg i.p.): 1 | median number of positive voxels (positive BOLD volume of activation) (ventral subiculum, 0.1 mg/kg i.p.): 26 | median number of positive voxels (positive BOLD volume of activation) (ventral subiculum, 0.3 mg/kg i.p.): 25 | median number of positive voxels (positive BOLD volume of activation) (ventral subiculum, 1.0 mg/kg i.p.): 3 | median number of positive voxels (positive BOLD volume of activation) (ventral tegmental area, 0.1 mg/kg i.p.): 8 | median number of positive voxels (positive BOLD volume of activation) (ventral tegmental area, 0.3 mg/kg i.p.): 5 | median number of positive voxels (positive BOLD volume of activation) (ventral tegmental area, 1.0 mg/kg i.p.): 0 | median number of positive voxels (positive BOLD volume of activation) (visual 1 ctx, 0.1 mg/kg i.p.): 27 | median number of positive voxels (positive BOLD volume of activation) (visual 1 ctx, 0.3 mg/kg i.p.): 21 | median number of positive voxels (positive BOLD volume of activation) (visual 1 ctx, 1.0 mg/kg i.p.): 0 | median number of positive voxels (positive BOLD volume of activation) (zona incerta, 0.1 mg/kg i.p.): 9 | median number of positive voxels (positive BOLD volume of activation) (zona incerta, 0.3 mg/kg i.p.): 3 | median number of positive voxels (positive BOLD volume of activation) (zona incerta, 1.0 mg/kg i.p.): 0
